US20070142392A1, “Uses of rifamycins” (ActivBiotics, Inc., priority 2005, published 2007)
Values after ≈ are worked out from the molar mass of the structure shown.

Tests used:
Type in all cases: cell-based
[1] = system: H. flu
[2] = system: E. faecalis; test: MIC values, E. faecalis (Tables 1-4)
[3] = system: S. pneumo.; test: MIC values, S. pneumo. (Tables 1-4)
[4] = system: E. coli; test: MIC values, E. coli (Tables 1-4)
[5] = system: S. aureus; test: MIC values, S. aureus (Tables 1-4)

SMILES | MIC H. flu [1] [µg/mL] | MIC E. faecalis [2] [µg/mL] | MIC S. pneumo. [3] [µg/mL] | MIC E. coli [4] [µg/mL] | MIC S. aureus [5] [µg/mL]
CO[C@H]1/C=C/O[C@@]2(C)Oc3c(C)c(O)c4c(=O)c(c5oc6cc(N7CCN(CCF)CC7)cc(O)c6nc-5c4c3C2=O)NC(=O)/C(C)=C\C=C\[C@H](C)[C@H](O)[C@@H](C)[C@@H](O)[C@@H](C)[C@H](O)[C@@H]1C [Compound 105] | 0.12 (≈ 0.135 µM) | 0.12 (≈ 0.135 µM) | 0.001 (≈ 0.00112 µM) | 8 (≈ 9 µM) | 0.004 (≈ 0.0045 µM)
CO[C@H]1/C=C/O[C@@]2(C)Oc3c(C)c(O)c4c(=O)c(c5oc6cc(N7CCN(c8ncccn8)CC7)cc(O)c6nc-5c4c3C2=O)NC(=O)/C(C)=C\C=C\[C@H](C)[C@H](O)[C@@H](C)[C@@H](O)[C@@H](C)[C@H](O)[C@@H]1C [Compound 106] | 0.12 (≈ 0.13 µM) | 0.25 (≈ 0.271 µM) | 0.0005 (≈ 0.000543 µM) | >8 | 0.004 (≈ 0.00434 µM)
CO[C@H]1/C=C/O[C@@]2(C)Oc3c(C)c(O)c4c(=O)c(c5oc6cc(N7CCNCC7)cc(O)c6nc-5c4c3C2=O)NC(=O)/C(C)=C\C=C\[C@H](C)[C@H](O)[C@@H](C)[C@@H](O)[C@@H](C)[C@H](O)[C@@H]1C [Compound 107] | 0.12 (≈ 0.142 µM) | 0.06 (≈ 0.0712 µM) | 0.002 (≈ 0.00237 µM) | 4 (≈ 4.75 µM) | 0.008 (≈ 0.00949 µM)
CCOc1c(N2CCN(CC3CC3)CC2)ccc2nc3c4c5c6c(C)c(O)c4c(=O)c(c-3oc12)NC(=O)/C(C)=C\C=C\[C@H](C)[C@H](O)[C@@H](C)[C@@H](O)[C@@H](C)[C@H](O)[C@H](C)[C@@H](OC)/C=C/O[C@@](C)(O6)C5=O [Compound 108] | 1 (≈ 1.08 µM) | 0.5 (≈ 0.54 µM) | 0.015 (≈ 0.0162 µM) | >8 | 0.03 (≈ 0.0324 µM)
CO[C@H]1/C=C/O[C@@]2(C)Oc3c(C)c(O)c4c(=O)c(c5oc6c(F)c(N7CCN(CC(C)C)CC7)ccc6nc-5c4c3C2=O)NC(=O)/C(C)=C\C=C\[C@H](C)[C@H](O)[C@@H](C)[C@@H](O)[C@@H](C)[C@H](O)[C@@H]1C [Compound 109] | 0.5 (≈ 0.555 µM) | 0.5 (≈ 0.555 µM) | 0.008 (≈ 0.00888 µM) | 8 (≈ 8.88 µM) | 0.03 (≈ 0.0333 µM)
CO[C@H]1/C=C/O[C@@]2(C)Oc3c(C)c(O)c4c(=O)c(c5oc6cc(N7CCN(C(=O)C8CC8)CC7)cc(O)c6nc-5c4c3C2=O)NC(=O)/C(C)=C\C=C\[C@H](C)[C@H](O)[C@@H](C)[C@@H](O)[C@@H](C)[C@H](O)[C@@H]1C [Compound 110] | 0.25 (≈ 0.274 µM) | 0.5 (≈ 0.549 µM) | 0.004 (≈ 0.00439 µM) | 8 (≈ 8.78 µM) | 0.015 (≈ 0.0165 µM)
CCc1cc2nc3c4c5c6c(C)c(O)c4c(=O)c(c-3oc2cc1N1CCCCC1)NC(=O)/C(C)=C\C=C\[C@H](C)[C@H](O)[C@@H](C)[C@@H](O)[C@@H](C)[C@H](O)[C@H](C)[C@@H](OC)/C=C/O[C@@](C)(O6)C5=O [Compound 111] | 2 (≈ 2.34 µM) | 4 (≈ 4.68 µM) | 0.12 (≈ 0.141 µM) | 1 (≈ 1.17 µM) | 1 (≈ 1.17 µM)
CO[C@H]1/C=C/O[C@@]2(C)Oc3c(C)c(O)c4c(=O)c(c5oc6cc(N7CCC(C(N)=O)CC7)cc(O)c6nc-5c4c3C2=O)NC(=O)/C(C)=C\C=C\[C@H](C)[C@H](O)[C@@H](C)[C@@H](O)[C@@H](C)[C@H](O)[C@@H]1C [Compound 112] | 0.25 (≈ 0.282 µM) | 1 (≈ 1.13 µM) | 0.002 (≈ 0.00226 µM) | >8 | 0.03 (≈ 0.0339 µM)
CCOC(=O)C1CCN(c2cc(O)c3nc4c5c6c7c(C)c(O)c5c(=O)c(c-4oc3c2)NC(=O)/C(C)=C\C=C\[C@H](C)[C@H](O)[C@@H](C)[C@@H](O)[C@@H](C)[C@H](O)[C@H](C)[C@@H](OC)/C=C/O[C@@](C)(O7)C6=O)CC1 [Compound 113] | 0.12 (≈ 0.131 µM) | 0.5 (≈ 0.547 µM) | 0.008 (≈ 0.00875 µM) | >8 | 0.004 (≈ 0.00438 µM)
CO[C@H]1/C=C/O[C@@]2(C)Oc3c(C)c(O)c4c(=O)c(c5oc6cc(N7CCC(F)CC7)ccc6nc-5c4c3C2=O)NC(=O)/C(C)=C\C=C\[C@H](C)[C@H](O)[C@@H](C)[C@@H](O)[C@@H](C)[C@H](O)[C@@H]1C [Compound 114] | 0.12 (≈ 0.142 µM) | 0.5 (≈ 0.592 µM) | 0.008 (≈ 0.00948 µM) | 8 (≈ 9.48 µM) | 0.03 (≈ 0.0355 µM)
CO[C@H]1/C=C/O[C@@]2(C)Oc3c(C)c(O)c4c(=O)c(c5oc6cc(N7CCC(F)(F)CC7)ccc6nc-5c4c3C2=O)NC(=O)/C(C)=C\C=C\[C@H](C)[C@H](O)[C@@H](C)[C@@H](O)[C@@H](C)[C@H](O)[C@@H]1C [Compound 115] | 0.25 (≈ 0.29 µM) | 1 (≈ 1.16 µM) | 0.015 (≈ 0.0174 µM) | >8 | 0.03 (≈ 0.0348 µM)
